pIC50: −log10 of the molar value. Where “and” joins values, the source holds several entries; their conditions need not be identical. Equal entries are not always repeated. Entries after “also recorded” stand apart in the source; their conditions may differ.

In series [1] the test system is SH-SY5Y cells. The series is described as follows: Aβ-induced toxicity in SH-SY5Y cells, MTS assay. Format: cell-based, human. The note with it: pretreated 24 hrs, then 25 μM Aβ 48 hrs. Here is the method:
(§1) Cell Culture. The cell line SH-SY5Y was cultured in DMEM/F12 media supplemented with 10% fetal bovine serum, 1% penicillin-streptomycin and maintained as monolayer cultures in a humidified atmosphere containing 5% CO2 at 37° C.^42 All cell lines were authenticated via short tandem repeat analysis and tested for mycoplasma using the a commercial mycoplasma detection kit as per the manufacturer's instructions, showing no contamination. Where indicated, cells were also cultured in DMEM/low glucose media. All compounds were diluted to 20 mM solution in DMSO and were serially diluted in cell culture media for cell treatments to a final concentration range of 0.01 to 100 μM, maintaining the final DMSO concentration at less than 1%. Positive control compound HupA was serially diluted in a similar fashion as the synthesized compounds.
(§2) Amyloid Preparation. The peptide Aβ1-42, referred to as “Aβ”, was obtained from a commercial source. The oligomers of Aβ were prepared using an established method,^43 Aβ peptide was resuspended in 0.5 mM NaOH at a concentration of […] and stored at −80° C. For use in cell cultures, the stock solution was incubated at 37° C. for 5-7 days. Before use, the peptide was diluted to 25 μM in DMEM/low glucose media.
Cell Viability Assays. The SH-SY5Y cells were plated at a density of 50,000 cells/well in 96-well plates and allowed to adapt overnight in a humidified atmosphere containing 5% CO2 at 37° C. The cells were pretreated (24 hours) with the test compound and exchanged to a serum-free DMEM/low glucose media, prior to incubation with 25 μM of Aβ. Cell viability was measured after 48 hours using commercial MTS assay or lactate dehydrogenase (LDH) cytotoxicity assay.
Employing human neuroblastoma SH-SY5Y ‘neuron-like’ cells, known to express ABAD,^20 experimental conditions are described herein that result in reproducible loss of 65% cell viability upon treatment with 25 μM Aβ after 48-hour incubation (FIG. 4A). Compound 1 (AG18051) and its analog 14b were screened for toxic effects in the SH-SY5Y cell lines.
HupA at 10 μM concentration provided 74% protection from Aβ-induced toxicity. […] Again, synthesized compound 14b at 1 μM, afforded greater protection than HupA at 10 μM concentration.
In general terms: Tetrazolium dyes change colour on reduction, which living cells bring about.

In series [2] the test system is SH-SY5Y cells. The series is described as follows: Aβ-induced toxicity in SH-SY5Y cells, lactate dehydrogenase (LDH) release assay. In kind it is cell-based, human. The settings on record: 1 μM, pretreated 24 hrs, then 25 μM Aβ 48 hrs. Here is the method: as §1, §2
Cell Viability Assays. […] Cell viability was measured after 48 hours using commercial MTS assay or lactate dehydrogenase (LDH) cytotoxicity assay. […]

The test system of series [3] is SH-SY5Y cells. The series is described as follows: Cell viability of SH-SY5Y cells with compound alone. The settings on record: up to 100 μM. Format: cell-based, human. Here is the method: as §1
Cell Viability Assays. The SH-SY5Y cells were plated at a density of 50,000 cells/well in 96-well plates and allowed to adapt overnight in a humidified atmosphere containing 5% CO2 at 37° C. The cells were pretreated (24 hours) with the test compound and exchanged to a serum-free DMEM/low glucose media, prior to incubation with 25 μM of Aβ. Cell viability was measured after 48 hours using commercial MTS assay or lactate dehydrogenase (LDH) cytotoxicity assay. […]

The conditions of series [4]: cited from earlier work.
For series [5], the target named is T1, Aβ-ABAD PPI (Homo sapiens, UniProt Q99714).
T1 construct: wildtype human SH-SY5Y cell lines, which are known to express ABAD; endogenous in cells; host or cells: SH-SY5Y
T1 sequence (Q99714 2-261 limits assumed): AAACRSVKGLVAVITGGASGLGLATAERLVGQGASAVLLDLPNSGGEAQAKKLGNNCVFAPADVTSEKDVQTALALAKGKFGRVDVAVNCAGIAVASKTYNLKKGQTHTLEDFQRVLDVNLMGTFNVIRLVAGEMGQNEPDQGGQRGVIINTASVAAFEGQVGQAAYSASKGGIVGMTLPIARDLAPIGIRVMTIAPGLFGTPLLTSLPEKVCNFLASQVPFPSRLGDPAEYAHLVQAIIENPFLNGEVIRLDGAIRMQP
The series is described as follows: Estradiol ELISA assay: rescue of Aβ-induced reduction of estradiol levels in SH-SY5Y cells. Format: cell-based. Here is the method: as §1, §2
Estradiol ELISA assay. SH-SY5Y cells were treated with compounds (24 hours), followed by Aβ (72 hours) in a similar fashion to that employed in the cell viability assays, the cell culture medium was collected, and cells were lysed using RIPA buffer and protease inhibitor cocktail, then proteins were quantified via BCA assay. An estradiol assay was performed. In brief, the plate was loaded with samples, along with the estradiol tracer and the specific antiserum to estradiol and incubated for one hour at room temperature. After five washing steps, Ellman's Reagent was added, and the plate developed for 60 minutes with gentle shaking at room temperature. The calculated estradiol concentration was normalized to the total protein content of the samples.
Statistical Analyses. The IC50 values of each compound were acquired from a single experiment with each inhibitor concentration run in triplicate and the statistical significance was calculated using the Student t test, or a one-way or two-way ANOVA. A P value of <0.05 was considered statistically significant. IC50 values were calculated.
To determine the effect of Aβ on estradiol production, and ABAD's role in this process, wildtype human SH-SY5Y cell lines, which are known to express ABAD, were incubated for 72 hours with Aβ.^20 Estradiol levels in the cell lysate were measured with a commercial ELISA-based estradiol assay. […] To determine if AG18051 treatment affects Aβ-induced reduction of estradiol levels, 0.1 or 1 μM AG18051 was preincubated in SH-SY5Y cells for 24 hours prior to Aβ exposure. […] AG18051 at 1 μM protected SH-SY5Y cells from Aβ-induced reduction of estradiol production to a greater significance than HupA. This confirms literature reports that AG18051 is neuroprotective and that it exerts this effect by ameliorating Aβ-induced reduction of estradiol production by ABAD.^20, 23
This assay methodology allows direct screening of compound activity in the presence of Aβ and provides direct evidence of the ability of compounds to rescue Aβ-induced reduction of estradiol production by ABAD. To measure the effect of AG18051 alone in SH-SY5Y cell lines, a 0.01-100 μM dose-response range was tested, and their effect on estradiol levels (FIG. 2B). […] To evaluate the effect of the increase of AG18051 dose in maintaining estradiol levels reduced by Aβ, AG18051 was tested in increasing concentrations in the presence of Aβ (FIG. 2B).
In general terms: An ELISA detects its analyte on a solid surface through an enzyme-linked reagent.

Series [6] has as its target T2, ABAD (Homo sapiens, UniProt Q99714).
T2 sequence (Q99714 1-261): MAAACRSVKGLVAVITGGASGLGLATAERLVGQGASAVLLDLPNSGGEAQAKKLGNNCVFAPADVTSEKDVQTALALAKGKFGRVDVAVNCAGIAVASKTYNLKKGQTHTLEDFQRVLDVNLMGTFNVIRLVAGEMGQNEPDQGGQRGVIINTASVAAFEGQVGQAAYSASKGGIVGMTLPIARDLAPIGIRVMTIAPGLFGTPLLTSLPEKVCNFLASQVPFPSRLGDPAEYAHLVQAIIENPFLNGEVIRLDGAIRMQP
Nature of the series: Estradiol levels in SH-SY5Y cells treated with the substance alone. In kind it is cell-based. Details: To measure the effect of AG18051 alone in SH-SY5Y cell lines; endogenous in cells; host or cells: SH-SY5Y. Here is the method:
Estradiol ELISA assay. […] An estradiol assay was performed. In brief, the plate was loaded with samples, along with the estradiol tracer and the specific antiserum to estradiol and incubated for one hour at room temperature. After five washing steps, Ellman's Reagent was added, and the plate developed for 60 minutes with gentle shaking at room temperature. The calculated estradiol concentration was normalized to the total protein content of the samples.

Series [7] has as its system SH-SY5Y cells. Nature of the series: Mitochondrial Stress Test in Aβ-treated SH-SY5Y cells (extracellular flux analyzer). In kind it is cell-based, human. The settings on record: for proton leak, ATP production and maximal respiration: restoration of mitochondrial function lost by Aβ: then 25 μM Aβ. Here is the method:
Mitochondrial Stress Test. […] After 48 hours, media was replaced with assay medium consisting of XF Base Medium supplemented with 10 mM glucose, 10 mM pyruvic acid, and 1 mM L-glutamine. Subsequently, the analysis of mitochondrial oxygen consumption rate (OCR) was performed in a flux analyzer. The OCR values were obtained both during baseline (prior to addition of any Mito Stress Test substances), and after the addition of […], 2 μM FCCP and 0.5 μM rotenone+0.5 μM antimycin A, respectively. Prior to analysis, data were corrected by withdrawing non-mitochondrial respiration (measured after the injection of rotenone and antimycin A) from all measured OCR values. After the experiment, cells were lysed using RIPA buffer and protease inhibitor cocktail, then proteins were quantified via BCA assay. Results were normalized to protein concentration of each well to its OCR value.

Series [8] has as its target T2, ABAD. The note with it: at 10 μM concentration; cited from earlier work.

On to `O=C(C(c1ccccc1)n1cnc2[nH]ncc2c1=S)N1CCCCCC1` (centres unmarked) [Compound 1, 1-(azepan-1-yl)-2-phenyl-2-(4-thioxo-1,4-dihydro-5H-pyrazolo[3,4-d]pyrimidin-5-yl)ethan-1-one, reference compound], for which, in series [1] (1 μM), the “protection of cell viability (MTS assay)” value stood at 79%. Further, in series [2], the “LDH release compared with Aβ treatment alone” value was “significantly reducing LDH release”. Further, the “toxicity to reduce cell viability” value in series [3] was “no toxicity”. Besides, in series [4], the solubility entry was “poor solubility”. In addition, in series [5] (compounds 24 hours then Aβ 72 hours, amelioration of Aβ-induced reduction of estradiol levels, read-out: IC50 (estradiol assay)), the pIC50 was 5.91 and 5.92. Further, the “estradiol levels in the presence of Aβ” value in series [5] (preincubated 24 hours prior to Aβ exposure, compared to Aβ-only control, listed as AG18051) is on record as “significantly maintained estradiol levels; also recorded: dose-dependent increase in estradiol levels”. Further, the “effect on estradiol levels, compound alone” value in series [6] (0.01-100 μM dose-response range) is given as “no significant reduction in estradiol levels”. In addition, the “decrease in estradiol levels compared to control” value in series [6] (compound alone at 100 μM) is given as 20%. In addition, the “basal respiration: restored share of the cell respiration reduced by Aβ” value in series [7] (1 μM pretreatment 24 hrs, then 25 μM Aβ 48 hrs) turned out to be 37%. The “proton leak, ATP production and maximal respiration: restoration of mitochondrial function lost by Aβ” value in series [7] (1 μM pretreatment) is on record as “trend to restore”.

`C/C=C1\[C@H]2C=C(C)C[C@]1(N)c1ccc(=O)[nH]c1C2` [Huperzine A]: the “protection from Aβ-induced toxicity (MTS assay)” value in series [1] (10 μM) was determined as 74%. In addition, the ABAD inhibition activity entry in series [8] is “possess ABAD inhibition activity”. For the same molecule, the “basal respiration: restored respiration levels” value in series [7] (10 μM pretreatment 24 hrs, then 25 μM Aβ 48 hrs) amounted to 46%. In addition, the “proton leak, ATP production and maximal respiration: restoration of mitochondrial function lost by Aβ” value in series [7] (10 μM pretreatment) is recorded as “trend to restore”.

What is called pIC50 is the negative decadic logarithm of the IC50, by convention in mol/L.

Values taken from patent US20250101026A1, “Functionalized Allopurinol Derivatives for Treatment of Alzheimer’s Disease” (BOARD OF REGENTS OF THE UNIVERSITY OF NEBRASKA, priority 2022, published 2025).
